For test [1], the system named is parental and drug-resistant CAOV2 cells. In kind it is cell-based, human. Particulars: 72-h cell viability assay, CAOV2-R versus parental.
In another test the test system is CAOV2-R cells. In words: Growth in the presence of DOX (trypan blue exclusion test). The test is classed as cell-based, human. Particulars: DOX 3 μM, after a one-week period. The procedure: (§1) FIG. 9. Susceptibility of parental and resistant ID8 and CAOV2 tumor cells to PTX, CBDCA and DOX. (a) Characterization of side population (SP) in the parental (P) and drug-resistant (R) ID8 (left panel) and CAOV2 (right panel) tumor cells by Hoechst 33342 dye staining. One representative experiment of two independent experiments performed in duplicates is shown. Growth of the parental and drug-resistant tumor variants of ID8 (b) and CAOV2 (c) cells in the presence of PTX (59 nM) and CBDCA (2.6 μM) (left panel) or DOX (3 μM) (right panel) was determined by a trypan blue exclusion test for cell viability. Bars represent the mean±SD of two independent experiments using triplicate samples.

The subject of a further test is ID8-R tumor cells. In kind it is cell-based, murine. Particulars: 24 h cultures, OVV MOI of 1 or DOX 1 μM alone.
Test [2] deals with parental and drug-resistant ID8 cells. The test is classed as cell-based, murine. The following applies: 72-h cell viability assay, ID8-R versus parental cells.
The next test deals with ID8-R cells. Description: Growth in the presence of DOX (trypan blue exclusion test). The test is classed as cell-based, murine. Particulars: DOX 3 μM, after a one-week period. The protocol:
as §1

Test [3] relates to OVV-EGFP in CAOV2-R tumor cells. In kind it is cell-based, vaccinia virus.
Test [4] has as its system OVV-EGFP in ID8-R tumor cells. In kind it is cell-based, vaccinia virus.

The source of these data is patent publication US20190307821A1, “METHODS AND COMPOSITIONS FOR CANCER THERAPY” (priority 2016, published 2019).

For the compound `COc1cccc2c1C(=O)c1c(O)c3c(c(O)c1C2=O)C[C@@](O)(C(=O)CO)C[C@@H]3O[C@H]1C[C@H](N)[C@H](O)[C@H](C)O1` [DOX, doxorubicin], the “differences in the IC50 values between the resistant and parental cells” value in test [1] worked out at 3 fold. Besides, the dead cells result with CAOV2-R cells and in the test with ID8-R cells was “over 90%” throughout. The “cells with apoptosis or necrosis” value in the test on ID8-R tumor cells is given as roughly 20%. Moreover, the “IC50 values higher compared to the parental cells” value in test [2] was “approximately 10 fold”. Besides, the “decrease in viral titers” value in test [3] amounted to 3 fold; in test [4] it was 10 fold.
